Data published in patent publication US9102669B2, “Substituted piperidinyl-pyridazinyl derivatives useful as SCD 1 inhibitors” (Janssen Pharmaceutica NV, priority 2011, dated 2015).
Where “and” joins values, the source holds several entries; their conditions need not be identical. Equal entries are not always repeated.

How the values were obtained:
[1] = biological target: SCD1 (Rattus norvegicus (Rat), UniProt P07308); experiment: SCD1 enzymatic assay in rat liver microsomes (RLM); format: biochemical; details: rat liver microsomes; for inhibition at 1 µM / % Inh.@ 1 μM: 1 μM test compound; for inhibition at 1 µM: read-out: % Inh.@ 1 μM
Protocol: Step 1: Preparation of Rat Liver Microsome (RLM):
Sprague Dawley rats from Charles River (200-225 g) underwent 2-cycle of fast-re-feeding (24-hour fast followed by 24-hour feeding with fat-free high carbohydrate diet, Reseach Diet, D00042802). The livers were removed and homogenized 1:4 (w/v) with pre-chilled, homogenizing buffer (10 mM Tris-HCl, 0.25 M sucrose, 1 mM EDTA, pH 7.4, supplemented with protease inhibitor cocktail). The homogenate was spun at 12,000×g for 15 min at 4° C. The supernatant was then re-centrifuged at 100,000×g for 60 min at 4° C. The pellet was re-suspended in 2 ml pre-chilled […] potassium phosphate buffer, pH 7.2, 10 mM EDTA at a concentration of 20 mg/ml. The resulting rat liver microsome (RLM) preparation was stored at −80° C.
Step 2: SCD1 Enzymatic Assay in RLM:
The SCD1 enzymatic assay was done in a volume of 50 μL using 10 μg of RLM (prepared as described above) in a 96-well polypropylene plate (enzyme reaction buffer contains 0.1 M K-Phosphate Buffer, 10 mM ATP, 6 mM MgCl2. 1 mM CoA, 1 mM β-NADH, 1.6 mM L-glutathione, 20 μM Stearoyl-CoA). Stearoyl-[9,10-^3H]-CoA (ARC-0390, 1 mCi/mL, 60 Ci/mmol,) was added at a final concentration of 2 μCi/mL. Test compound was then added to the reaction mixture at the selected concentration. After incubation at room temperature for 2 hours, 5 μL 1 N HCl was added to stop the reaction, followed by addition of 25 μL of 10% charcoal. The reaction mixture was then transferred to 96-well Multiscreen plate (Millipore, Cat#MSFCN6B50). […] The measured cpm values were fitted with Sigmoidal dose-response curve fit with Graphpad Prism.

[2] = biological target: SCD1 (Homo sapiens (Human), UniProt O00767); experiment: SCD1 13C-palmitic acid assay in A431 cells; format: cell-based; details: read-out: A431 cells 13C-PA IC50
Protocol: Human epithelial carcinoma A431 cells were seeded at 100,000 cells/well in complete growth medium (DMEM, Cellgro#10-013-CM, 4.5 g/L glucose, 10% FBS) in the presence of 0.05 mg/mL human insulin (Hannas Pharmaceutical Supply Co Inc, Humanlin 100 U/ml, 4 mg/ml) in 96-well tissue culture plate. 24 hr later, the cells were washed extensively with Assay Buffer (DMEM, Cellgro#10-013-CM, 4.5 g/L glucose, supplemented with 0.05 mg/mL Human Insulin and 0.1% Fatty Acid Free BSA). […] The cells were then returned to the tissue culture incubator (37° C. and 5% CO2) for 4 hrs. At the end of incubation, the cells were washed three times with 200 μL/well Hanks buffer (HBSS) and then stored at −20° C. until extraction.
For fatty acid extraction, after thawing out the plates, 40 μL of 1N KOH (containing 5 μM of internal standard 7,7,8,8-D4 palmitate) was added to each well and cell plates were incubated at 37° C. for 30 minutes. […] Acetonitrile (100 μL) was then added to extract fatty acids, followed by centrifugation at 3000 rpm for 10 minutes. 75 μL of extract was then transferred to a new glass vial in a 96-well cluster plate. 5 μL was injected for LC/MS analysis for detection of ^13C-palmitic acid and ^13C-palmitoleic acid. Formation of product ^13C-palmitoleic acid was determined as an index of SCD1 activity.
LC/MS analysis was performed as following. An Agilent 1100 Liquid Chromatographic System (Palo Alto, Calif.) consisting of a binary pump, a degasser and an autosampler was used. Separation of free fatty acids was performed on a Zorbax SB-C8 column (2.1×50 mm, particle size=3.5 μm). An isocratic elution was carried out with 10 mM triethylamine acetate in water: acetonitrile (3:7) at a flow rate of 0.3 mL/min. The column temperature was set at 30° C. and the sample injection volume was 5 μL. The LC run cycle was 4 min. A Micromass triple-quadrupole Quattro Micro mass […] (Waters, Beverly, Mass.) was interfaced with the LC system through a Z-spray electrospray ion source and was operated in the negative ion mode. Nitrogen was used as nebulizing gas, desolvation gas and cone curtain gas and argon was chosen as collision gas. The triple quadrupole MS source parameters were set as follows: capillary voltage, 3200V; cone voltage, 25V; exctractor 2V; source temperature, 120° C.; desolvation temperature, 300° C.; cone gas flow, 50 L/h; and desolvation gas flow, 700 L/h. […] MassLynx software version 4.0 was used for system control and data processing. The signal of U-^13C-palmitoleic acid was normalized to an internal standard.

SCD1 (Homo sapiens (Human), UniProt O00767), sequence (O00767 whole entry): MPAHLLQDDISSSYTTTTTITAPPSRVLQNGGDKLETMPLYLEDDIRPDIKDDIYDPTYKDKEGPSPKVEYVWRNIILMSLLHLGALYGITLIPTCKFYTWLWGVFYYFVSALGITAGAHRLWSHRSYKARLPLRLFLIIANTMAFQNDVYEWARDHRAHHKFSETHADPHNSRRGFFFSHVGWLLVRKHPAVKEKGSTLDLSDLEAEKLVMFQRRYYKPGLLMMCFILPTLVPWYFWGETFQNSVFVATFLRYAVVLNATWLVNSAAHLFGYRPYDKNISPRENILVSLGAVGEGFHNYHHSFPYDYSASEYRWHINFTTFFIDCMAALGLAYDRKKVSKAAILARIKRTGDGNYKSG
SCD1 (Rattus norvegicus (Rat), UniProt P07308), sequence (P07308 whole entry): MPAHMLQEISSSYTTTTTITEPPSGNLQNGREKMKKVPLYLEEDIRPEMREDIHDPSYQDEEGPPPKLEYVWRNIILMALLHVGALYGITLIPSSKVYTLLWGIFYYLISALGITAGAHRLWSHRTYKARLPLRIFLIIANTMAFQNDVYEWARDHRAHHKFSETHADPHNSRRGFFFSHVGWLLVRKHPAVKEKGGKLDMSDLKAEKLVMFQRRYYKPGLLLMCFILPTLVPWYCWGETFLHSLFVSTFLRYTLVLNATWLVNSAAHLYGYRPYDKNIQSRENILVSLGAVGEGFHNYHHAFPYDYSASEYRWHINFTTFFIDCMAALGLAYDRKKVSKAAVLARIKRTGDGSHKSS

| Structure (SMILES) | inhibition at 1 µM [1] | IC50 [1] | IC50 [2] | % Inh.@ 1 μM [1] |
| --- | --- | --- | --- | --- |
| Cn1cc(-c2ccc(N3CCC(N4CCc5cc(F)ccc54)CC3)nn2)cn1 [Compound #46, 5-fluoro-1-(1-(6-(1-methyl-1H-pyrazol-4-yl)pyridazin-3-yl)piperidin-4-yl)indoline] | 85% | 165 nM | 99 nM |  |
| OCc1ccc(-c2ccc(N3CCC(N4CCc5ccc(F)cc54)CC3)nn2)cc1 [Compound #51] | 96% | 22 nM | 8 nM |  |
| Cc1ccc(-c2ccc(N3CCC(N4CCc5ccc(F)cc54)CC3)nn2)s1 [Compound #52, 6-fluoro-1-(1-(6-(5-methylthiophen-2-yl)pyridazin-3-yl)piperidin-4-yl)indoline] | 92% | 121 nM | 6 nM |  |
| Fc1ccc2c(c1)N(C1CCN(c3ccc(-c4ccc(C(F)(F)F)cc4)nn3)CC1)CC2 [Compound #54, 6-fluoro-1-(1-(6-(4-(trifluoromethyl)phenyl)pyridazin-3-yl)piperidin-4-yl)indoline] | 85% | 90 nM | 54 nM |  |
| Cc1ccc2c(c1)N(C1CCN(c3ccc(-c4cnn(C)c4)nn3)CC1)CC2 [Compound #57, 6-methyl-1-(1-(6-(1-methyl-1H-pyrazol-4-yl)pyridazin-3-yl)piperidin-4-yl)indoline] | 72% | 286 nM | 241 nM |  |
| O=C(O)c1ccc(-c2ccc(N3CCC(N4CCc5ccc(F)cc54)CC3)nn2)cc1 [Compound #58, 4-(6-(4-(6-fluoroindolin-1-yl)piperidin-1-yl)pyridazin-3-yl)benzoic acid] | 78% | 349 nM | 390 nM |  |
| Cn1cc(-c2ccc(N3CCC(N4CCc5ccc(Cl)cc54)CC3)nn2)cn1 [Compound #59, 6-chloro-1-(1-(6-(1-methyl-1H-pyrazol-4-yl)pyridazin-3-yl)piperidin-4-yl)indoline] | 99% | 35 nM | 28 nM |  |
| COc1ccc2c(c1)N(C1CCN(c3ccc(-c4cnn(C)c4)nn3)CC1)CC2 [Compound #62, 6-methoxy-1-(1-(6-(1-methyl-1H-pyrazol-4-yl)pyridazin-3-yl)piperidin-4-yl)indoline] | 79% | 317 nM | 407 nM |  |
| CNC(=O)Cn1cc(-c2ccc(N3CCC(N4CCc5ccc(F)cc54)CC3)nn2)cn1 [Compound #64, 2-(4-(6-(4-(6-fluoroindolin-1-yl)piperidin-1-yl)pyridazin-3-yl)-1H-pyrazol-1-yl)-N-methylacetamide] | 102% | 15 nM | 12 nM |  |
| Cn1cc(-c2ccc(N3CCC(N4CCc5cc(Cl)ccc54)CC3)nn2)cn1 [Compound #65, 5-chloro-1-(1-(6-(1-methyl-1H-pyrazol-4-yl)pyridazin-3-yl)piperidin-4-yl)indoline] | 83% | 181 nM | 218 nM |  |
| CCOCc1cnn(-c2ccc(N3CCC(N4CCc5ccc(F)cc54)CC3)nn2)c1 [Compound #72, 1-(1-(6-(4-(ethoxymethyl)-1H-pyrazol-1-yl)pyridazin-3-yl)piperidin-4-yl)-6-fluoroindoline] | 99% | 8 nM | 9 nM |  |
| Fc1ccc2c(c1)N(C1CCN(c3ccc(-c4ccc(C(F)(F)F)nc4)nn3)CC1)CC2 [Compound #76, 6-fluoro-1-(1-(6-(6-(trifluoromethyl)pyridin-3-yl)pyridazin-3-yl)piperidin-4-yl)indoline] | 97% | 16 nM | 14 nM |  |
| CCOCCn1cc(-c2ccc(N3CCC(N4CCc5ccc(F)cc54)CC3)nn2)cn1 [Compound #78, 1-(1-(6-(1-(2-ethoxyethyl)-1H-pyrazol-4-yl)pyridazin-3-yl)piperidin-4-yl)-6-fluoroindoline] | 99% | 12 nM | 41 nM |  |
| CCCn1cc(-c2ccc(N3CCC(N4CCc5ccc(F)cc54)CC3)nn2)cn1 [Compound #79, 6-fluoro-1-(1-(6-(1-propyl-1H-pyrazol-4-yl)pyridazin-3-yl)piperidin-4-yl)indoline] | 97% | 22 nM | 72 nM |  |
| CCn1cc(-c2ccc(N3CCC(c4noc5ccc(F)cc45)CC3)nn2)cn1 [compound 13, 3-(1-(6-(1-ethyl-1H-pyrazol-4-yl)pyridazin-3-yl)piperidin-4-yl)-5-fiuorobenzo[d]isoxazole] | 98% | 70 nM | 985 nM |  |
| Cc1nnc(-c2ccc(N3CCC(c4noc5ccc(F)cc45)CC3)nn2)o1 [compound 18, 5-fluoro-3-(1-(6-(5-methyl-1,3,4-oxadiazol-2-yl)pyridazin-3-yl)piperidin-4-yl)benzo[d]isoxazole] |  | 315 nM | 248 nM |  |
| OCc1nnc(-c2ccc(N3CCC(c4noc5ccc(F)cc45)CC3)nn2)o1 [compound 20, (5-(6-(4-(5-fluorobenzo[d]isoxazol-3-yl)piperidin-1-yl)pyridazin-3-yl)-1,3,4-oxadiazol-2-yl)methanol] | 96% | 16 nM and 14 nM | 11 nM | 96, 96% |
| Cc1csc(-c2ccc(N3CCC(c4noc5ccc(F)cc45)CC3)nn2)n1 [compound 23, 5-fluoro-3-(1-(6-(4-methylthiazol-2-yl)pyridazin-3-yl)piperidin-4-yl)benzo[d]isoxazoie] | 100% | 21 nM | 3 nM |  |
| Cc1ccc(-c2ccc(N3CCC(c4noc5ccc(F)cc45)CC3)nn2)cn1 [compound 24, 5-fluoro-3-(1-(6-(6-methylpyridin-3-yl)pyridazin-3-yl)piperidin-4-yl)benzo[d]isoxazote] | 98% | 11 nM and 4 nM | 9 nM and 6 nM | 94% |
| Cc1cc(-c2ccc(N3CCC(c4noc5ccc(F)cc45)CC3)nn2)ccn1 [compound 25, 5-fluoro-3-(1-(6-(2-methylpyridin-4-yl)pyridazin-3-yl)piperidin-4-yl)benzo[d]isoxazole] | 62% | 171 nM | 17 nM |  |
| Fc1ccc2onc(C3CCN(c4ccc(-c5cn[nH]c5)nn4)CC3)c2c1 [compound 26, 3-(1-(6-(1H-pyrazol-4-yl)pyridazin-3-yl)piperidin-4-yl)-5-fluorobenzo[d]isoxazole] | 86% | 111 nM | 112 nM |  |
| Cc1csc(-c2ccc(N3CCC(c4noc5ccc(F)cc45)CC3)nn2)c1 [compound 27, 5-fluoro-3-(1-(6-(4-methylthiophen-2-yl)pyridazin-3-yl)piperidin-4-yl)benzo[d]isoxazole] | 75% | 114 nM and 122 nM | 4 nM and 3 nM | 55% |
| Cc1cnc(-c2ccc(N3CCC(c4noc5ccc(F)cc45)CC3)nn2)s1 [compound 28, 5-fluoro-3-(1-(6-(5-methylthiazol-2-yl)pyridazin-3-yl)piperidin-4-yl)benzo[d]isoxazole] | 94% | 9 nM | 9 nM and 16 nM |  |
